Results taken from the supplement of paper PMC13380429.
± gives the standard deviation of the averaged measurements.

Legend:
Details in all cases: 72 h
Vero E6 [1] = assay: drug sensitivity score (DSS) for viability; higher = more toxic; extreme values may be limits of the assay
Caco-2 [2] = assay: as above
HepG2 [3] = assay: as above
Calu-3 [4] = assay: as above
U2OS [5] = assay: as above
Vero E6 [6] = assay: relative viability EC50 (midpoint between 100% and the lowest measured viability); higher = less toxic
Caco-2 [7] = assay: as above
HepG2 [8] = assay: as above
Calu-3 [9] = assay: as above
U2OS [10] = assay: as above
Vero E6 [11] = assay: cell viability relative to DMSO; higher = less toxic
Caco-2 [12] = assay: as above
HepG2 [13] = assay: as above
Calu-3 [14] = assay: as above
U2OS [15] = assay: as above

SMILES | drug sensitivity score (Vero E6 [1]) | drug sensitivity score (Caco-2 [2]) | drug sensitivity score (HepG2 [3]) | drug sensitivity score (Calu-3 [4]) | drug sensitivity score (U2OS [5]) | relative viability EC50 (Vero E6 [6]) [µM] | relative viability EC50 (Caco-2 [7]) [µM] | relative viability EC50 (HepG2 [8]) [µM] | relative viability EC50 (Calu-3 [9]) [µM] | relative viability EC50 (U2OS [10]) [µM] | cell viability (Vero E6 [11]; 1 nM) [%] | cell viability (Vero E6 [11]; 10 nM) [%] | cell viability (Vero E6 [11]; 100 nM) [%] | cell viability (Vero E6 [11]; 1000 nM) [%] | cell viability (Vero E6 [11]; 10000 nM) [%] | cell viability (Caco-2 [12]; 1 nM) [%] | cell viability (Caco-2 [12]; 10 nM) [%] | cell viability (Caco-2 [12]; 100 nM) [%] | cell viability (Caco-2 [12]; 1000 nM) [%] | cell viability (Caco-2 [12]; 10000 nM) [%] | cell viability (HepG2 [13]; 1 nM) [%] | cell viability (HepG2 [13]; 10 nM) [%] | cell viability (HepG2 [13]; 100 nM) [%] | cell viability (HepG2 [13]; 1000 nM) [%] | cell viability (HepG2 [13]; 10000 nM) [%] | cell viability (Calu-3 [14]; 1 nM) [%] | cell viability (Calu-3 [14]; 10 nM) [%] | cell viability (Calu-3 [14]; 100 nM) [%] | cell viability (Calu-3 [14]; 1000 nM) [%] | cell viability (Calu-3 [14]; 10000 nM) [%] | cell viability (U2OS [15]; 1 nM) [%] | cell viability (U2OS [15]; 10 nM) [%] | cell viability (U2OS [15]; 100 nM) [%] | cell viability (U2OS [15]; 1000 nM) [%] | cell viability (U2OS [15]; 10000 nM) [%]
C=C1/C(=C\C=C2/CCC[C@]3(C)[C@@H]([C@H](C)CCCC(C)(C)O)CC[C@@H]23)C[C@@H](O)C[C@@H]1O [calcitriol] | 0 | 0 | 0 | 0 | 0 | > 10 | > 10 | > 10 | > 10 | > 10 | 106 | 102 | 104 | 98.1 | 97.8 | 101 | 104 | 105 | 101 | 92.5 | 116 | 112 | 102 | 92.6 | 96.2 | 100 | 106 | 96.7 | 101 | 96.8 | 100 | 104 | 95.9 | 103 | 92.8
CC1/C=C/C=C/C=C/C=C/C=C/C=C/C=C/C(OC2O[C@H](C)[C@@H](O)[C@H](N)[C@@H]2O)CC(O)C(C(=O)O)C(O)CC(=O)CC(O)CC(O)CC(O)CC(=O)CCCC(=O)CC(=O)OC1C(C)CC(C)C(O)CC(=O)c1ccc(N)cc1 (stereo not given in full) [candicidin] | 0.6 | 0 | 0 | 0 | 0 | > 10 | > 10 | > 10 | > 10 | > 10 | 101 | 104 | 96.7 | 104 | 77.2 | 82 | 90.8 | 87.1 | 92 | 77.1 | 109 | 96.4 | 103 | 103 | 98.6 | 101 | 102 | 102 | 104 | 97.5 | 105 | 99.9 | 101 | 101 | 96.8
CNC(=O)ON(C(C)=O)C(=O)NC [caracemide] | 0 | 0 | 0 | 0 | 0 | > 10 | > 10 | > 10 | > 10 | > 10 | 97.2 | 96.9 | 99.6 | 94.7 | 112 | 89.6 | 103 | 95.8 | 97.1 | 99.7 | 107 | 104 | 112 | 93.8 | 108 | 94 | 102 | 111 | 101 | 98.3 | 94.8 | 102 | 99.3 | 103 | 106
Cc1ccc(-c2cc(C(F)(F)F)nn2-c2ccc(S(N)(=O)=O)cc2)cc1 [celecoxib] | 0 | 0 | 0 | 0 | 0 | > 10 | > 10 | > 10 | > 10 | > 10 | 101 | 85.4 | 102 | 94.1 | 104 | 99.1 | 79.8 | 105 | 90.6 | 103 | 115 | 98.4 | 99.3 | 100 | 95.1 | 99.4 | 100 | 98.2 | 101 | 114 | 92.4 | 99.6 | 92.4 | 97.7 | 98.4
O=C([O-])c1ccccn1.O=C([O-])c1ccccn1.O=C([O-])c1ccccn1.[Cr+3] [chromium-picolinate] | 0 | 0 | 0 | 0 | 0 | > 10 | > 10 | > 10 | > 10 | > 10 | 102 | 103 | 105 | 99.2 | 101 | 105 | 92 | 104 | 95.5 | 103 | 93 | 95.3 | 103 | 98.7 | 90.1 | 111 | 102 | 113 | 103 | 97.6 | 104 | 97.7 | 98.6 | 98.9 | 102
Clc1ccc(Cn2c(CN3CCCC3)nc3ccccc32)cc1 [clemizole] | 0 | 0.5 | 0 | 0 | 0 | > 10 | > 10 | > 10 | > 10 | > 10 | 102 | 104 | 103 | 99.2 | 92.3 | 95.5 | 94.7 | 97.6 | 97 | 84.7 | 112 | 111 | 94.3 | 106 | 89.1 | 95.7 | 98.4 | 101 | 101 | 107 | 101 | 97.7 | 98.6 | 105 | 97.8
O=c1cc(N2CCOCC2)nc2c3ccccc3ccn12 [compound-401] | 0 | 0.2 | 2.5 | 0 | 0 | > 10 | > 10 | > 10 | > 10 | > 10 | 102 | 97.9 | 98 | 98.3 | 95.9 | 96.8 | 108 | 96.4 | 99.1 | 85.8 | 93 | 108 | 99.4 | 82.8 | 78 | 93.8 | 94.4 | 97.9 | 99.5 | 107 | 96.2 | 99.8 | 97.2 | 101 | 95.5
CC(=O)OCC(=O)[C@@]1(O)CC[C@H]2[C@@H]3CCC4=CC(=O)CC[C@]4(C)[C@H]3C(=O)C[C@@]21C [cortisone-acetate] | 0 | 0 | 0 | 0 | 0 | > 10 | > 10 | > 10 | > 10 | > 10 | 87.9 | 97.5 | 96.4 | 101 | 99.3 | 108 | 95.4 | 101 | 96.3 | 103 | 90 | 110 | 104 | 110 | 101 | 93.2 | 98.5 | 98.9 | 106 | 101 | 99.6 | 98.1 | 97 | 101 | 95.1
CC(C)(C)NCC(O)COc1cccc2[nH]c(C#N)cc12 (stereo not given) [cyanopindolol] | 0 | 0 | 0 | 0 | 0 | > 10 | > 10 | > 10 | > 10 | > 10 | 102 | 103 | 100 | 104 | 97 | 103 | 103 | 95.8 | 99.7 | 97.5 | 93 | 95.7 | 89.6 | 102 | 95.8 | 85.4 | 105 | 100 | 96.8 | 92.8 | 100 | 98.8 | 96.7 | 94.7 | 101
c1ccc(Cn2c(-c3ccc(OC[C@H](C4CCNCC4)n4c(-c5ccccc5)nc5ccccc54)cc3)nc3ccccc32)cc1 [deltarasin] | 6.2 | 6 | 4.9 | 5.1 | 5.6 | 2.8 | 2.85 | 3.62 | 3.51 | 3.14 | 92.9 | 99.3 | 94 | 95.4 | -0.1 | 98.6 | 87.8 | 104 | 95.9 | 2.1 | 99.7 | 100 | 95 | 110 | -0.3 | 105 | 102 | 102 | 107 | 0.1 | 99.9 | 93.9 | 98.7 | 99.9 | -0.3
CC[N+](CC)(CC(=O)Nc1c(C)cccc1C)Cc1ccccc1 [denatonium-benzoate] | 0 | 0 | 0 | 0 | 0 | > 10 | > 10 | > 10 | > 10 | > 10 | 95.1 | 99.2 | 95.3 | 88.9 | 111 | 100 | 102 | 99.8 | 110 | 112 | 100 | 99.3 | 108 | 100 | 116 | 96.7 | 101 | 98.3 | 92.8 | 105 | 91 | 96.1 | 95.9 | 103 | 104
CC/C(=C(/CC)c1ccc(O)cc1)c1ccc(O)cc1 [diethylstilbestrol] | 0 | 0.3 | 0 | 0 | 0 | > 10 | > 10 | > 10 | > 10 | > 10 | 95.1 | 99.8 | 91.2 | 98.3 | 107 | 97.7 | 87.3 | 107 | 106 | 81.5 | 111 | 98.8 | 103 | 98.8 | 106 | 106 | 96.7 | 114 | 103 | 109 | 98.6 | 94 | 99.5 | 94.3 | 96.8
N[C@@H](C(=O)O)c1cc(O)cc(O)c1 [dihydroxyphenylglycine] | 0 | 0 | 0 | 0 | 0 | > 10 | > 10 | > 10 | > 10 | > 10 | 99.4 ± 5.7 | 97.5 ± 7 | 98.5 ± 1.9 | 99.6 ± 5.4 | 95.8 ± 4.7 | 102 ± 3.8 | 94.9 ± 1.1 | 92.4 ± 7.5 | 90.8 ± 4.5 | 103 ± 5 | 95.8 ± 10 | 92 ± 9.4 | 87.9 ± 4.8 | 98.2 ± 2.4 | 102 ± 8.4 | 104 ± 5.4 | 90.5 ± 9.7 | 102 ± 1.1 | 102 ± 6.4 | 105 ± 9.4 | 102.7 ± 0.85 | 97.2 ± 2.8 | 103 | 98.8 ± 0.42 | 101 ± 2
c1ccc2c(c1)[I+]c1ccccc1-2 [diphenyleneiodonium] | 15.8 | 10.8 | 29.3 | 8.6 | 16 | 0.137 | 0.251 | 0.0322 | 0.308 | 0.16 | 94.9 | 95 | 65.9 | 38.9 | 25.1 | 92.9 | 97.3 | 72.3 | 61.9 | 37 | 110 | 87.7 | 14.9 | 8.2 | 2.4 | 92.6 | 94.5 | 78.8 | 69.1 | 44.9 | 95.4 | 95.1 | 64.8 | 39.3 | 20.7
